Experimental data reported in patent publication EP4703358A1, “BENZO SIX-MEMBERED HETEROCYCLIC GSPT1 PROTEIN DEGRADATION AGENT AND USE THEREOF” (China Pharmaceutical University, priority 2023, dated 2024).
Read-outs that look alike come from different tables or passages of the source.

Legend:
KG-1 cells = assay: Antiproliferative activity against KG-1 cells (CCK8); format: cell-based; settings: Homo sapiens, 72 hours
Experimental: KG-1 cells in the logarithmic growth phase were diluted in a culture medium (RPMI + 10% FBS) and plated onto 96-well plates at 5000 cells/well, and the plates were incubated in an incubator at 37 °C with 5% CO2 for 24 hours. 10 mM stock solutions of the test compounds of the present disclosure in DMSO were prepared and diluted with the culture medium to set 9 concentration gradients. Three replicate wells were set for each concentration. After compound addition, the plates were incubated in an incubator at 37 °C with 5% CO2 for 72 hours. The cell proliferation was assessed using the CCK8 method. The cell growth inhibition IC50 values of the compounds were determined using an enzyme labeling method. The IC50 values were calculated using GraphPad Prism 7 software.
The antiproliferative activity of the compounds against KG-1 cells is shown in Table 2, where A represents IC50 < 1 nM, B represents 1 ≤ IC50 < 10 nM, C represents 10 nM ≤ IC50 < 100 nM, D represents 100 nM ≤ IC50 < 1000 nM, and E represents IC50 ≥ 1000 nM. Table 2. The antiproliferative activity of compounds against KG-1 cells

[1] = Metabolic stability in in vitro rat liver microsomes; settings: rat
Experimental: (§3) 10 mM stock solutions of the test compounds in DMSO were prepared, diluted with acetonitrile and then with PBS, and vortexed, with the DMSO content controlled at 0.1%. The dilute working solutions (10 µL) were incubated with 65 µL of a liver microsome system (30 µL of 100 mM PBS, 25 µL of 20 mM MgCl2, and 10 µL of 5 mg/mL RLMs) and preheated at 37 °C for 5 min. 25 µL of 4 mM NADPH was added to start a reaction. Samples were taken at different time points (0 min, 5 min, 15 min, 30 min, 60 min, and 120 min), and an acetonitrile solution containing an internal standard was added to stop the reaction. After vortexing and centrifugation, the supernatants were collected and analyzed by LC-MS/MS, and the half-lives and clearance rates were calculated.

GSPT1 protein = biological target: T1, GSPT1 protein (Homo sapiens, UniProt P15170+Q96SW2); assay: Degradation of GSPT1 in KG-1 cells (Western blot); format: cell-based; settings: KG-1 cells, compound concentration 200 nM, 4 hours
T1 construct: host or cells: KG-1 cells
Experimental: KG-1 cells (ATCC) were grown in an IMDM culture medium (containing 20% FBS). After centrifugation and counting, the cell concentration was adjusted. The cells were plated onto 6-well plates at 10^6 cells/well, with 1350 µL per well. 150 µL of DMSO and the test compounds of the present disclosure (compound concentration: 200 nM) were added. The plates were incubated in an incubator at 37 °C with 5% CO2 for 4 hours. The cells were centrifuged, and the culture medium was discarded. PBS was added to wash the cells and then discarded. Whole cell lysates were prepared using a protease inhibitor cocktail (100×, Fude Biological), a protein phosphatase inhibitor cocktail (100×, Fude Biological), SuperNuclease (Beyotime), and a high-intensity RIPA lysis buffer (Thermo Fisher) and placed on ice for 30 minutes. After centrifugation, the cell debris precipitates were discarded, and the whole cell lysate supernatants were collected and transferred to new centrifuge tubes. After a BCA protein assay, samples were prepared using a 5× loading buffer (Thermo Fisher). The samples were subjected to protein electrophoresis separation in a 4-20% precast gel (SDS-PAGE gel), transferred to a PVDF membrane, then blocked with 5% NFDM/TBST at room temperature for 1 hour, incubated overnight with primary antibodies at 4 °C, and incubated with a secondary antibody at room temperature for 2 hours the next day. Signals were detected using a MINICHEMITM imaging system.
Primary antibodies: • Anti-GSPT1: Abcam ab234433 • Anti-beta actin: Fude Biological FD0060
Secondary antibody: Anti-rabbit peroxidase-linked secondary antibody: Fude Biological FDG007
The degradation effects of the compounds on GSPT1 protein are shown in Table 1, where A represents a GSPT1 protein degradation percentage of no less than 80%, B represents a degradation percentage of less than 80% but no less than 50%, C represents a degradation percentage of less than 50% but no less than 25%, and D represents a degradation percentage of less than 25%. Table 1. The degradation of GSPT1 protein by compounds

MV4-11 = assay: Antiproliferative activity against tumor cells (CCK8), MV4-11; format: cell-based; settings: Homo sapiens, MV4-11 cells, 72 hours
Experimental: (§1) U937, MOLM-13, and MV4-11 cells (ATCC) in the logarithmic growth phase were separately diluted in a culture medium and plated onto 96-well plates at 5000 cells/well, and the plates were incubated in an incubator at 37 °C with 5% CO2 for 24 hours. 10 mM stock solutions of the compounds in DMSO were prepared and diluted with the culture medium to set 9 concentration gradients. Three replicate wells were set for each concentration. After compound addition, the plates were incubated in an incubator at 37 °C with 5% CO2 for 72 hours. The cell proliferation was assessed using the CCK8 method. The cell growth inhibition IC50 values of the compounds were determined using an enzyme labeling method. The IC50 values were calculated using GraphPad Prism 7 software.
(§2) The antiproliferative activity of the compounds against the tumor cells is shown in Table 3, where A represents IC50 < 1 nM, B represents 1 ≤ IC50 < 10 nM, C represents 10 nM ≤ IC50 < 100 nM, D represents 100 nM ≤ IC50 < 1000 nM, and E represents IC50 ≥ 1000 nM. Table 3. The antiproliferative activity of compounds against tumor cells

MOLM-13 = assay: Antiproliferative activity against tumor cells (CCK8), MOLM-13; format: cell-based; settings: Homo sapiens, MOLM-13 cells, 72 hours
Experimental: as §1, §2

[2] = In vivo pharmacokinetic study in rats; settings: rat
Experimental: (§4) Sample collection and preparation: After SPF SD rats (male, 210-230 g, 42-48 days, RILD Liver) in a good growth state were dosed intravenously at 2 mg/kg and orally at 10 mg/kg, blood samples were collected via the orbit at different blood collection time points and transferred to centrifuge tubes containing an anticoagulant; the intravenous blood collection time points were 0.08 hours, 0.25 hours, 0.5 hours, 1 hour, 2 hours, 4 hours, 6 hours, 8 hours, and 24 hours, and the oral blood collection time points were 0.25 hours, 0.5 hours, 1 hour, 2 hours, 4 hours, 6 hours, 8 hours, and 24 hours. The blood samples were immediately centrifuged at 4 °C and 8000 rpm for 10 minutes, and the plasma was collected and stored in an ultra-low-temperature freezer at -80 °C until it was analyzed by LC-MS/MS. Pharmacokinetic data analysis: Pharmacokinetic parameters of the compounds were calculated using pharmacokinetic software in a non-compartmental model. The peak plasma concentration (Cmax) and the time to reach the peak plasma concentration (Tmax) were taken as observation values. Parameters such as the half-life T1/2, the areas under the plasma concentration-time curve AUClast and AUCinf, the apparent volume of distribution Vss, and the clearance rate CL were determined through regression analysis of the linear terminal portion of the logarithmic plasma concentration-time curve and the linear trapezoidal rule.

U937 = assay: Antiproliferative activity against tumor cells (CCK8), U937; format: cell-based; settings: Homo sapiens, U-937, 72 hours
Experimental: as §1, §2

in vitro = settings: rat, microsomes
Experimental: as §3

in vivo = settings: male, SD, rat
Experimental: as §4

[3] = male, SD, rat, in vivo, po, 10 mg/kg
Experimental: as §4

T1 sequence (P15170 whole entry): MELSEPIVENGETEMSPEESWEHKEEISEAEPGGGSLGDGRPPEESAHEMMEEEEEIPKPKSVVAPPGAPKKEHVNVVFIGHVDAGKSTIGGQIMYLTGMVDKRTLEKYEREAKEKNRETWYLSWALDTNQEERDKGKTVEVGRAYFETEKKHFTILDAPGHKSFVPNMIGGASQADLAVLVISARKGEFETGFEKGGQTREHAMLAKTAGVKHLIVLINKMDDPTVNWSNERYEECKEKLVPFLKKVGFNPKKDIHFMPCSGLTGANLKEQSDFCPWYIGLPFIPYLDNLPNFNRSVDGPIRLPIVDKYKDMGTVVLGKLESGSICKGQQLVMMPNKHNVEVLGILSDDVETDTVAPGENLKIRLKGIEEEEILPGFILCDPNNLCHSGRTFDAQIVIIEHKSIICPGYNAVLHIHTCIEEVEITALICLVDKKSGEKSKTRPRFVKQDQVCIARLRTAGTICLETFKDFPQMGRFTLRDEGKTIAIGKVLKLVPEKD
T1 sequence (Q96SW2 whole entry): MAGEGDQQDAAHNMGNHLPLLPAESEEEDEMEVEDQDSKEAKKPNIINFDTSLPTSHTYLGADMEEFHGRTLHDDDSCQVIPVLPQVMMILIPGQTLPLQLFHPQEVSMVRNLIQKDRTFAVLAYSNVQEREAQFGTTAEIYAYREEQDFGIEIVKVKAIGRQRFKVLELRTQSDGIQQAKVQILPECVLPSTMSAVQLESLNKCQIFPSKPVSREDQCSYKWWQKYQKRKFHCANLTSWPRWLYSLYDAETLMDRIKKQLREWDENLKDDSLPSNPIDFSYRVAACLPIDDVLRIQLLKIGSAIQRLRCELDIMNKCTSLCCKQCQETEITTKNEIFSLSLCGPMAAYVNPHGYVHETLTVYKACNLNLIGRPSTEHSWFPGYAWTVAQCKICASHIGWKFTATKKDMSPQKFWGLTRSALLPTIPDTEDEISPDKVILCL
T1 sequence (Q16531 whole entry partner): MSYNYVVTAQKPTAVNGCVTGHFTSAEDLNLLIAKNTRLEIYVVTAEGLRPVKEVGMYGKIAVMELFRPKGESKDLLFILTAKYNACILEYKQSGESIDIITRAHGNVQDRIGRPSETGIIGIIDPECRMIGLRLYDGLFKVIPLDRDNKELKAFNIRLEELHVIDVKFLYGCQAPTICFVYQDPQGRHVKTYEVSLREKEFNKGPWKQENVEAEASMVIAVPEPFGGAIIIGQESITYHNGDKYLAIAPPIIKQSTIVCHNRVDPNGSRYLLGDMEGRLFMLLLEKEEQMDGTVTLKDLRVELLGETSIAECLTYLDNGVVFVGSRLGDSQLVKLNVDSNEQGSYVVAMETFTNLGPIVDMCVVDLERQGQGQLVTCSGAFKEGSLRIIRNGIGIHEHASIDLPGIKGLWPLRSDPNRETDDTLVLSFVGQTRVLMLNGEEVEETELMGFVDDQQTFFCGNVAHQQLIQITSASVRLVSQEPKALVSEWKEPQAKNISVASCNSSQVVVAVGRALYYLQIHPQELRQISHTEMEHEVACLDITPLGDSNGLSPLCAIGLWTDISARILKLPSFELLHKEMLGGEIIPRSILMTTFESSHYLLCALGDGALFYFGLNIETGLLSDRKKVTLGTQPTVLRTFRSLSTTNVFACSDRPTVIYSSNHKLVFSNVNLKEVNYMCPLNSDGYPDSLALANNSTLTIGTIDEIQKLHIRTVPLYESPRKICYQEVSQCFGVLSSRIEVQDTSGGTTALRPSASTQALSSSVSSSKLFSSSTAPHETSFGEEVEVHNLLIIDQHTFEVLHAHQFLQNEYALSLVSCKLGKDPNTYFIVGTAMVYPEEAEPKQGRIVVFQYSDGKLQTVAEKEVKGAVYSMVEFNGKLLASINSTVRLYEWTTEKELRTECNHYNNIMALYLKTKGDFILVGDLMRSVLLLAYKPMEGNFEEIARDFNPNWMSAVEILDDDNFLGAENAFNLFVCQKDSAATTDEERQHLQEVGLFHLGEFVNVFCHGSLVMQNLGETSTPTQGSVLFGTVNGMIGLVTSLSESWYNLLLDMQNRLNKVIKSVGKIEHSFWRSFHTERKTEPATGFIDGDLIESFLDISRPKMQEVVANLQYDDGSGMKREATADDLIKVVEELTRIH

half-life [1]	microsomal CLint [1]	percent GSPT1 degradation at 0.2 µM (GSPT1 protein)	IC50 (MV4-11)	IC50 (MOLM-13)	IC50 (U937)	SMILES	IC50 (KG-1 cells)	also measured
6.17 h	3.75 µL/min/mg	> 80%	10 to 100 nM	10 to 100 nM	1 to 10 nM	O=C1CCC(N2Cc3cc(CNC(=O)C4=Cc5ccccc5OC4)ccc3C2=O)C(=O)N1 (stereo not shown) [Compound A-1, N-((2-(2,6-Dioxopiperidin-3-yl)-1-oxoisoindolin-5-yl)methyl)-2H-chromene-3-carboxamide]	10 to 100 nM	AUC(0-inf) ([2]; male, SD, plasma, iv, 2 mg/kg): 1920 ± 267 ng·h/mL; AUC(0-t) ([2]; male, SD, plasma, iv, 2 mg/kg): 1900 ± 270 ng·h/mL; C0 ([2]; male, SD, plasma, iv, 2 mg/kg): 3840 ± 226 ng/mL; Vd ([2]; male, SD, plasma, iv, 2 mg/kg): 0.92 ± 0.07 L/kg; clearance ([2]; male, SD, plasma, iv, 2 mg/kg): 17.6 ± 2.6 mL/min/kg; half-life ([2]; male, SD, plasma, iv, 2 mg/kg): 1.38 ± 0.14 h; AUC(0-inf) ([2]; male, SD, plasma, po, 10 mg/kg): 1850 ± 330 ng·h/mL; AUC(0-t) ([2]; male, SD, plasma, po, 10 mg/kg): 1810 ± 343 ng·h/mL; Cmax ([2]; male, SD, plasma, po, 10 mg/kg): 619 ± 42 ng/mL; Tmax ([2]; male, SD, plasma, po, 10 mg/kg): 0.75 ± 0.43 h; half-life ([2]; male, SD, plasma, po, 10 mg/kg): 2.69 ± 1.13 h; F ([2]; PO 10mg/kg): 19.3±3.4%
0.735 h	31.4 µL/min/mg	> 80%	1 to 10 nM	1 to 10 nM	1 to 10 nM	O=C1CCC(N2Cc3cc(CNC(=O)C4COc5ccccc5C4)ccc3C2=O)C(=O)N1 (stereo not shown) [Compound B-1, N-((2-(2,6-Dioxopiperidin-3-yl)-1-oxoisoindolin-5-yl)methyl)chromane-3-carboxamide]	10 to 100 nM	
4.67 h	4.95 µL/min/mg	> 80%	10 to 100 nM	10 to 100 nM	10 to 100 nM	O=C1CCC(N2Cc3cc(CNC(=O)C4=Cc5cc(F)ccc5OC4)ccc3C2=O)C(=O)N1 (stereo not shown) [Compound A-3, N-((2-(2,6-Dioxopiperidin-3-yl)-1-oxoisoindolin-5-yl)methyl)-6-fluoro-2H-chromene-3-carboxamide]	10 to 100 nM	

SMILES	half-life [1]	microsomal CLint [1]	percent GSPT1 degradation at 0.2 µM (GSPT1 protein)	IC50 (MV4-11)	IC50 (MOLM-13)	IC50 (U937)	IC50 (KG-1 cells)	also measured
O=C1CCC(N2Cc3cc(CNC(=O)C(F)(F)c4ccc(Cl)cc4)ccc3C2=O)C(=O)N1 (stereo not shown) [CC-90009]			50 to 80%	10 to 100 nM	100 to 1000 nM	10 to 100 nM	10 to 100 nM	half-life (in vitro): 1.29 h; microsomal CLint (in vitro): 17.9 µL/min/mg; AUC(0-inf) (in vivo; iv, 2 mg/kg): 1200 ± 304 ng·h/mL; AUC(0-t) (in vivo; iv, 2 mg/kg): 1200 ng·h/mL; C0 (in vivo; iv, 2 mg/kg): 1870 ± 492 ng/mL; Vd (in vivo; iv, 2 mg/kg): 2.85 ± 0.63 L/kg; clearance (in vivo; iv, 2 mg/kg): 28.8 ± 6.4 mL/min/kg; half-life (in vivo; iv, 2 mg/kg): 1.44 ± 0.26 h; AUC(0-inf) (in vivo; po, 10 mg/kg): 1896 ± 14 ng·h/mL; AUC(0-t) (in vivo; po, 10 mg/kg): 1892 ± 12 ng·h/mL; Cmax (in vivo; po, 10 mg/kg): 616 ± 53 ng/mL; Tmax (in vivo; po, 10 mg/kg): 1.5 ± 0.71 h; half-life (in vivo; po, 10 mg/kg): 2.91 ± 0.28 h; F [3]: 31.2±9.1%
